The record followed here is ChEMBL document CHEMBL1201862, “PubChem BioAssay data set” (2004).

The source made the active and inactive calls. Bounds are passed on as bounds.

One assay deals with Protein Tat (Human immunodeficiency virus type 1 group M subtype B (isolate HXB2)(HIV-1), UniProt P04608). Format: functional.
A further assay deals with Nonstructural protein 1 (Influenza A virus, UniProt Q194T2). Format: functional, Influenza A virus (A/California/07/2009(H1N1)).
For assay [1], the target named is T1, E3 ubiquitin-protein ligase XIAP (Homo sapiens, UniProt P98170). In words: Counter Screen using XIAP-Bir3 for Chemical Antagonists of Bir1/2 domains of IAP-family anti-apoptotic proteins. [Related pubchem assays (depositor defined):AID1018, AID1449, AID1514, AID1638, AID1749, AID1750, AID488957, AID488963]. In general terms: Counterscreens check selectivity or assay interference.

Assay [2] addresses T1, E3 ubiquitin-protein ligase XIAP. In words: small molecules displacing peptide from XIAP – biochemical, IAP family, fluorescence polarization (AID 1018). Format: functional.
Assay [3] concerns the target T2, Tyrosine-protein phosphatase non-receptor type 7 (Homo sapiens, UniProt P35236).
T2 sequence (P35236 whole entry): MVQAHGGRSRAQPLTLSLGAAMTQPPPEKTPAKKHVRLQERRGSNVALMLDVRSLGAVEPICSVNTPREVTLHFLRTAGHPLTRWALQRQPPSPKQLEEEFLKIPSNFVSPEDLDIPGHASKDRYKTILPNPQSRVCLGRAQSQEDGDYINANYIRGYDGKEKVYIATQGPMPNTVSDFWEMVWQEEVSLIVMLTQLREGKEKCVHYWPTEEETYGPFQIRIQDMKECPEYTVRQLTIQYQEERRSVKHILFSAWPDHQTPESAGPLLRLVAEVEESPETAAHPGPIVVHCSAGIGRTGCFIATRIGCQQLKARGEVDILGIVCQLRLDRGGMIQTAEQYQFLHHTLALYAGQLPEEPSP
In words: HePTP tyrosine phosphatase activity blockers – biochemical, absorbance, leukemia target, primary screen (AID 521). Format: functional.

For the next assay, the system named is Vero. In words: cells. Format: functional. The note with it: Chlorocebus sabaeus.
Assay [4] is described as follows: fluconazole-exposed Candida albicans growth modulators – fluorescence, retest, confirmation (AID 2467). Format: functional, cell-based.
A short description of assay [5]: NIH3T3 cell viability loss – ATP luminescence, mouse fibroblasts, counter-screen, dose response (AID 2010).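 Also: cells exposed to compound for about 90 hours before reading.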 Format: functional, cell-based.
For assay [6], the target named is Glucose-6-phosphate 1-dehydrogenase (Homo sapiens, UniProt P11413). In words: inhibition of Homo sapiens G6PD, dose series – biochemical, fluorescence, selectivity assay for P. falciparum G6PD inhibitor project, dose response (AID 504792). Format: functional.
The target of assay [7] is T3, Mannose-6-phosphate isomerase (Homo sapiens, UniProt P34949).
T3 sequence (P34949 whole entry): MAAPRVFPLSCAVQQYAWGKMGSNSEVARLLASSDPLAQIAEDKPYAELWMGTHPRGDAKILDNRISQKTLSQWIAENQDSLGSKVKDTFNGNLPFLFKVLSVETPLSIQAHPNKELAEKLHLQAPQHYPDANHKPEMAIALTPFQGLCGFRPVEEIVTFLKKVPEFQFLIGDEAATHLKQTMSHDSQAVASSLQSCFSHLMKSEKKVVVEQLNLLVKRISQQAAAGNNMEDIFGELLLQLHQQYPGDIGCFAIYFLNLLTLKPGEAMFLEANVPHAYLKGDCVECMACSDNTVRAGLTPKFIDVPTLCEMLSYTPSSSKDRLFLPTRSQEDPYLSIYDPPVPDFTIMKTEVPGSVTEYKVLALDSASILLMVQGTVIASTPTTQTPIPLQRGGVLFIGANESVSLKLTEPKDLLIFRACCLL
In words: MPI inhibition at elevated mannose 6-phosphate – biochemical, fluorescence intensity, high mannose 6-phosphate, primary screen (AID 1220).

Assay [8] is described as follows: Trypanosoma cruzi growth suppression in host cells – NIH3T3 host cells, beta-gal luminescence, confirmation (AID 2044).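 Also: intracellular parasites grown in NIH/3T3 mouse fibroblasts as host cells; luminescent beta-galactosidase reporter signal from transgenic T. cruzi replicating inside host cells; inhibitors lower the luminescence signal.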 Format: functional, cell-based.
Assay [9] can be described thus: NIH-3T3 fibroblast cytotoxicity, dose response, cytotoxicity control, cell-based, fluorescence, Alamar Blue, secondary assay (AID 2327).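 Also: NIH-3T3 mouse fibroblasts cultured with fluconazole at 8 µg/mL.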 Format: functional. Background: Resazurin is reduced to fluorescent resorufin, in cell work by metabolically active cells.
The next assay has as its target Large T antigen (Simian virus 40, UniProt P03070). Format: functional, Betapolyomavirus macacae.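 Also: Confirmatory-stage PubChem screen for compounds that inhibit SV40 T antigen.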
Assay [10] has as its target Induced myeloid leukemia cell differentiation protein Mcl-1 (Homo sapiens, UniProt Q07820). In words: blockers of MCL1 binding to BIM peptide – biochemical, fluorescence polarization, BIM-BH3 peptide, 1536-well, dose response (AID 2217). For orientation: Polarisation of emitted light reports the rotation of a fluorescent probe.
Another assay deals with Bcl-2-like protein 1 (Homo sapiens, UniProt Q07817). In words: blockers of BCLXL peptide binding – biochemical, fluorescence polarization, 1536-well, selectivity assay for MCL1 inhibitor project, dose response (AID 2218).
The target in assay [11] is RNA-editing ligase 1, mitochondrial (Trypanosoma brucei brucei, UniProt P86926). In words: inhibition of trypanosome RNA editing ligase – biochemical, fluorescence, Trypanosoma brucei, dose response (AID 1117295). Format: functional.
Assay [12] can be described thus: non-specific 3'UTR reporter inhibition in Clone20-Shn3RL – cell-based, Renilla luciferase, cherry-picked, counter-screen for Shn3 inhibitor project, dose response (AID 624133). Format: functional.
A further assay concerns INS1. In words: INS-1E survival protection against cytokine death – cell-based, luminescence, retest, dose response (AID 449756).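 Also: cell death triggered by IL-1 beta plus TNF-alpha plus IFN-gamma mixture; protective hits raise ATP signal compared with cytokine alone wells.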 Format: functional. As to conditions: Rattus norvegicus.
A short description of assay [13]: loss of viability in HepG2 cells – cell-based, CellTiter-Glo, cherry-picked, cytotoxicity control for Shn3 inhibitor project, dose response (AID 624134). Format: functional.
Assay [14] in a line: reduction of Shn3 3'UTR-driven luciferase in osteoblasts – cell-based, Clone20 osteoblasts, firefly luciferase, cherry-picked, dose response (AID 624132).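 Also: firefly luciferase luminescence from reporter carrying the Shn3 3'UTR in osteoblasts.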 Format: functional.
The nature of assay [15]: Luminescence Cell-Based Dose Retest to Confirm Inhibitors of Cancer Stem Cells. [Related pubchem assays (depositor defined):AID2717, AID2721]. Format: functional. As to conditions: Homo sapiens.
Assay [16] has as its target E3 ubiquitin-protein ligase Mdm2 (Homo sapiens, UniProt Q00987). In words: MDM2-luc reporter signal enhancers, multi-concentration potency testing, MDM2 ubiquitin-protein ligase inhibitor program, whole-cell format, luminescence detection, 384-well microplate (AID 1394).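 Also: MDM2 E3 inhibitors raise luminescence so EC50 is for signal enhancement.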 Format: functional.
Another assay has as its target Estrogen receptor beta (Homo sapiens, UniProt Q92731).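 Also: recombinant ER-beta bound to coactivator SRC1 peptide in presence of estradiol agonist; inhibitors block coactivator peptide binding and lower the FRET signal.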
Another assay relates to H4. In words: Luminescence Cell-Based Dose Response HTS to Identify Activators of 5'UTR Stem-Loop Driven Prion Protein mRNA Translation in H4 Neuroglioblastoma Cells. [Related pubchem assays: 1829 (Project Summary), 1814 (Primary HTS)]. The note with it: Homo sapiens. Format: functional.
Assay [17] can be described thus: Luminescence Cell-Based Dose Response to Identify Activators of 5'UTR Stem-Loop Driven Prion Protein mRNA Translation in H4-C Neuroglioblastoma Cells. [Related pubchem assays: 1829 (Project Summary), 1814 (Primary HTS)]. Format: functional.
Assay [18] is described as follows: Luminescence Cell-Based Dose Confirmation to Identify Activators of 5'UTR Stem-Loop Driven Alpha-Synuclein mRNA Translation in H4 Neuroglioblastoma Cells. [Related pubchem assays: 1829 (Project Summary), 1814 (Primary HTS)]. Format: functional.
The nature of assay [19]: Luminescence Cell-Based Dose Response HTS to Identify Activators of Luciferase Translation or Activity in H4 […] Cells. [Related pubchem assays: 1829 (Project Summary), 1814 (Primary HTS)]. Format: functional.
A short description of assay [20]: Luminescence Cell-Based Dose Response to Identify Activators of Luciferase Translation or Activity in H4-C Neuroglioblastoma Cells. [Related pubchem assays: 1829 (Project Summary), 1814 (Primary HTS)]. Format: functional.
A further assay has as its target Kallikrein-7 (Homo sapiens, UniProt P49862). In words: Fluorescence Intensity-based biochemical primary high throughput dose response assay to identify activators of kallikrein-7 (K7) zymogen.
Assay [21] in a line: cytotoxicity in MITF-independent A375 cells – cell-based, CellTiter-Glo luminescence, dry powder, set 4, counter-screen for MITF inhibitor project, dose response (AID 624364).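 Also: A375 melanoma cells are MITF independent so this is a counter screen.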 Format: functional. As to conditions: A-375.
Assay [22] in a line: viability loss in MITF-independent A375 cells – cell-based, CellTiter-Glo luminescence, dry powder, set 2, counter-screen for MITF inhibitor project, dose response (AID 624489).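 Also: actives are compounds lowering A375 viability meaning general cytotoxicity.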 Format: functional. The note with it: A-375.
Assay [23] concerns the target T4, Oxysterols receptor LXR-beta (Homo sapiens, UniProt P55055).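 Also: Cell-based luminescence dose-response assay of agonist activity at LXR, run as a confirmatory counterscreen to a daf-12 agonist screen; HEK293 cells with Gal4-LXR fusion and GAL4-driven luciferase reporter; agonist potency from rising luciferase signal of a Gal4-LXR reporter.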
T4 sequence (P55055 whole entry): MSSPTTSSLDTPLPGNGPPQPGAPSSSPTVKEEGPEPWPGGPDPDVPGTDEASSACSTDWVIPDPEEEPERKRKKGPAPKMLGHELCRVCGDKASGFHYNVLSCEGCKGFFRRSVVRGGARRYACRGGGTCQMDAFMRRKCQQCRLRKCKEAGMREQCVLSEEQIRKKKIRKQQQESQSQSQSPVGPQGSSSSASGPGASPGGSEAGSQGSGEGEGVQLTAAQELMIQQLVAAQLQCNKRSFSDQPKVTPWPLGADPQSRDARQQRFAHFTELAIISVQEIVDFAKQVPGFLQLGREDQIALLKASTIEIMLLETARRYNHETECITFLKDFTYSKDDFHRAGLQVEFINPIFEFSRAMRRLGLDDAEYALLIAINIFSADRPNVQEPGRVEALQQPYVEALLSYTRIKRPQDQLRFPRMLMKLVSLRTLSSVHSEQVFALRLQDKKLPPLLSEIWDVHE
Format: functional, cell-based.

T1 sequence (P98170 whole entry): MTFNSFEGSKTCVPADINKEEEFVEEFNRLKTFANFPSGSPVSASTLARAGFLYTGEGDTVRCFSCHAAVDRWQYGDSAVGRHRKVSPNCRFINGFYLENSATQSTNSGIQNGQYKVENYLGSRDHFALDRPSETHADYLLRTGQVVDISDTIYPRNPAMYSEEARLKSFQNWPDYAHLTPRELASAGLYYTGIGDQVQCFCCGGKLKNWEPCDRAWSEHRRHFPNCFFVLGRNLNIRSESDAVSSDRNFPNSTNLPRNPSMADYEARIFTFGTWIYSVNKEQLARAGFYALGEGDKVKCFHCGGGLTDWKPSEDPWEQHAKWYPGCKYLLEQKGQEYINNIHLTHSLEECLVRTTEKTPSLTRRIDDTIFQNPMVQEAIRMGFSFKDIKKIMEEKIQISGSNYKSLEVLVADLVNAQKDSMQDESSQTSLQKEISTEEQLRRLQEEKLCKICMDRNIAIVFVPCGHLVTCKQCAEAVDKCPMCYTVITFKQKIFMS
Chain of E3 ubiquitin-protein ligase Mdm2 (Q00987 whole entry): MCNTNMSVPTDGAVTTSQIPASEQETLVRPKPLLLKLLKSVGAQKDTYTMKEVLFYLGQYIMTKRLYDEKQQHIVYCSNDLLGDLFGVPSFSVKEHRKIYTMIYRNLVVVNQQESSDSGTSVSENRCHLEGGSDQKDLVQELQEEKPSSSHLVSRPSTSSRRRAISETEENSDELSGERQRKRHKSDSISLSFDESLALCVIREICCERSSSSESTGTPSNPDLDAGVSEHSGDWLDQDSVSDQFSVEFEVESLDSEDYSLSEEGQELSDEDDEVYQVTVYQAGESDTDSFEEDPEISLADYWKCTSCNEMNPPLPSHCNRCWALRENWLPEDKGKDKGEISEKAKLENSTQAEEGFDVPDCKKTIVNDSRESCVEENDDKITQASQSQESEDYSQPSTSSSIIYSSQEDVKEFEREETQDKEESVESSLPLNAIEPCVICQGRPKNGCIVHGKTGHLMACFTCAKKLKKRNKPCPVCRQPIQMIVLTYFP
Chain of Kallikrein-7 (P49862 whole entry): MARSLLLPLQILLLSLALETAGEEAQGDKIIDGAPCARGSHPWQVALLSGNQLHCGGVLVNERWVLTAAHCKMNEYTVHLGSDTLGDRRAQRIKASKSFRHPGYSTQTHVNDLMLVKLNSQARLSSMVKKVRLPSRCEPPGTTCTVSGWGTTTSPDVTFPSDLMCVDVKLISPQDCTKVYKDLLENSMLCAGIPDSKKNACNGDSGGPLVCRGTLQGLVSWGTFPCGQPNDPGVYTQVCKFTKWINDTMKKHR
Chain of Protein Tat (P04608 whole entry): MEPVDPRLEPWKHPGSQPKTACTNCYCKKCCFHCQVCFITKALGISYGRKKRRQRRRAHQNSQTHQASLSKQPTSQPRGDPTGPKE
Chain of RNA-editing ligase 1, mitochondrial (P86926 whole entry): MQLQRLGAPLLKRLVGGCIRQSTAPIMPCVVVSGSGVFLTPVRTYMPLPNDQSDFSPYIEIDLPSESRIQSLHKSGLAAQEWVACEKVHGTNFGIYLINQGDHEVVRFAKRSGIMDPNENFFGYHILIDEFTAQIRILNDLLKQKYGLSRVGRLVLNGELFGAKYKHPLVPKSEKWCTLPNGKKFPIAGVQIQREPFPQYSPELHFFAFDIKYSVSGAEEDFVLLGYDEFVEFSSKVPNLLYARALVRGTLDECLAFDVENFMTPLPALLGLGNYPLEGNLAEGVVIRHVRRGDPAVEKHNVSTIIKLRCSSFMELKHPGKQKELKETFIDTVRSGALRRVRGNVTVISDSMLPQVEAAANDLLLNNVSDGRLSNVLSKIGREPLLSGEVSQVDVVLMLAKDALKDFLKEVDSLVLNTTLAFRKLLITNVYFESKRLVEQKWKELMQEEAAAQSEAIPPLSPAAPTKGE
Chain of Bcl-2-like protein 1 (Q07817 whole entry): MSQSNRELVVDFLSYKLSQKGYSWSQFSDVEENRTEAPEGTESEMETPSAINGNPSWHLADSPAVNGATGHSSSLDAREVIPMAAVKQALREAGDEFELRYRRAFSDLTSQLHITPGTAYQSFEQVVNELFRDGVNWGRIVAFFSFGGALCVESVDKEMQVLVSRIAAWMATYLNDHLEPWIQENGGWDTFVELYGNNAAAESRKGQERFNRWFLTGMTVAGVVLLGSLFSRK
Chain of Large T antigen (P03070 whole entry): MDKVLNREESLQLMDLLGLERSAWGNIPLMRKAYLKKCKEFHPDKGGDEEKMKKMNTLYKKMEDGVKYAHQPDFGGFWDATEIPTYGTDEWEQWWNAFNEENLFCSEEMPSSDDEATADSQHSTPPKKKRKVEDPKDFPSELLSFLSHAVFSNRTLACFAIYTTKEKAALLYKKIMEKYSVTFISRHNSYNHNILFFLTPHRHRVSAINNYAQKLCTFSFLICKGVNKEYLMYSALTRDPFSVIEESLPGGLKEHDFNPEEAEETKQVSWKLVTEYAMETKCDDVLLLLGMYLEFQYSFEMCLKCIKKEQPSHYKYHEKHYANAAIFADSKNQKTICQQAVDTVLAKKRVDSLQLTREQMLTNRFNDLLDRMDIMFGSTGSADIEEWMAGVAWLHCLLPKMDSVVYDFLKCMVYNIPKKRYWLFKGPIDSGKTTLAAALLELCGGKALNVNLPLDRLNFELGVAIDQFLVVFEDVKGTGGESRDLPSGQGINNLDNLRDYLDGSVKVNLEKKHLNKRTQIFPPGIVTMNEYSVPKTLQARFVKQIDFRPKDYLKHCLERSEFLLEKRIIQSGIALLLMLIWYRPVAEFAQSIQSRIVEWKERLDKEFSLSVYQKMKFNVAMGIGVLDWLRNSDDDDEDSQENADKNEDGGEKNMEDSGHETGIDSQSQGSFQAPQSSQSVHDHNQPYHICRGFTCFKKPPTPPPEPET
Chain of Glucose-6-phosphate 1-dehydrogenase (P11413 whole entry): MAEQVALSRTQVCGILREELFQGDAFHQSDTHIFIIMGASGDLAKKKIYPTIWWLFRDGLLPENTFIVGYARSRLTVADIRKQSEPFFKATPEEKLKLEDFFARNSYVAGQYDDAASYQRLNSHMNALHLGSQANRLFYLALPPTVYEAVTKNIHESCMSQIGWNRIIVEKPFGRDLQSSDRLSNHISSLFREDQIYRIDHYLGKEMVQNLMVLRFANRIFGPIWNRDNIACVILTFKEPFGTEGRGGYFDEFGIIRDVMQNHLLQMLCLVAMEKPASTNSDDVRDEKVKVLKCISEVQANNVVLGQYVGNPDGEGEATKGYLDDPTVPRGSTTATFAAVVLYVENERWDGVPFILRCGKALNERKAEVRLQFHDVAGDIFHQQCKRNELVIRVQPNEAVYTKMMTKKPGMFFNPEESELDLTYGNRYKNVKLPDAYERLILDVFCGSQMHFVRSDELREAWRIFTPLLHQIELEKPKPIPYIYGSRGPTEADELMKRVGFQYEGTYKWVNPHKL
Chain of Induced myeloid leukemia cell differentiation protein Mcl-1 (Q07820 whole entry): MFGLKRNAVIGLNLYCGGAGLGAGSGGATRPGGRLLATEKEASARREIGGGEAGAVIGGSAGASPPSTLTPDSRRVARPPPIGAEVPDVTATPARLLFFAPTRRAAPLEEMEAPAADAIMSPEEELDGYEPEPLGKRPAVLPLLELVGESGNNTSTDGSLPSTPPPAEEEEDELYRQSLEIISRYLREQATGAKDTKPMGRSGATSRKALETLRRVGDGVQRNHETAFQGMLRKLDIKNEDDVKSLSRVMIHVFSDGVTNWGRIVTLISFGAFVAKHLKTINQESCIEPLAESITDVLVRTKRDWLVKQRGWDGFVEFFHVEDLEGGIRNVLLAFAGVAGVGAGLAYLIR
Chain of Estrogen receptor beta (Q92731 whole entry): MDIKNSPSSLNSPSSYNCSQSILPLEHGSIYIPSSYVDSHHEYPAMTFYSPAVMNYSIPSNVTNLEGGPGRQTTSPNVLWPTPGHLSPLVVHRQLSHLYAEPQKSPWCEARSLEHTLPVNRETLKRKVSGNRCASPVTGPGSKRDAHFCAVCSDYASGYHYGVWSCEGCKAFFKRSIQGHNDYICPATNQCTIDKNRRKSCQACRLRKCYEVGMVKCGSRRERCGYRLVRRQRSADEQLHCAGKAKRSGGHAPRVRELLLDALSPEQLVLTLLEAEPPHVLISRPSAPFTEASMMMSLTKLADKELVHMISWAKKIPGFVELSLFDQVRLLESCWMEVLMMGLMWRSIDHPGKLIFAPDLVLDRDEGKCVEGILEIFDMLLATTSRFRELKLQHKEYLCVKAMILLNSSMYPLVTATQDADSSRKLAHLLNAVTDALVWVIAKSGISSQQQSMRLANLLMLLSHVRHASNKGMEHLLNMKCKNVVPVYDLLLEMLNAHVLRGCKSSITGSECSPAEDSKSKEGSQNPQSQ
Chain of Nonstructural protein 1 (Q194T2 whole entry): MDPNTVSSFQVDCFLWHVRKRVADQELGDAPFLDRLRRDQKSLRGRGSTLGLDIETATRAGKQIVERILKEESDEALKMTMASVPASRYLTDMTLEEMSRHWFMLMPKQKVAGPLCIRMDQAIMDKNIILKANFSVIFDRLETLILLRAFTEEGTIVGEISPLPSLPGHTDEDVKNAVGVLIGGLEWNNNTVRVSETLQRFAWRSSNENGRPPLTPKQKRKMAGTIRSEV

A word on the IC50: it is the midpoint of a concentration-inhibition curve. In the case of `Oc1ccccc1C=Nc1ccc(F)c2c(O)[nH]nc12`, the 50% inhibitory concentration (IC50) on Protein Tat was 3.3 µM (inconclusive); at Nonstructural protein 1 it was 41.6 µM (active).
In the case of `O=c1nc(NCc2ccco2)sc2ncccc12`, the results for the IC50 in [1] and in assay [2] were > 100 µM (inactive) and > 100 µM (not active), respectively.
On to `COc1ccc(OC)c(C2C(C(=O)Nc3ccccc3OC)=C(C)Nc3nc(CCCO)nn32)c1` (stereo unspecified), for which the half-maximal inhibitory concentration (IC50) in assay [3] is listed as > 100 µM (not active).
In the case of `CCn1cc(C(=O)NCC2CCCO2)c(=O)c2cc(S(=O)(=O)N3CCC(C)CC3)ccc21` (stereo unspecified), the IC50 in [3] is on record as > 100 µM (not active).
As usually defined, the CC50 is the concentration giving 50% cytotoxicity. As a reminder, the EC50 is the concentration that produces a half-maximal response. Take `COc1cc(CNc2ccc(N3CCCC3)cc2)cc(Cl)c1OC`: in the assay on Vero, the CC50 is 4.57 µM (active). Besides, the EC50 in [4] is > 38 µM (not active); in assay [5], > 30 µM (not active); in [8], 2.95 µM (active); in [9], 48.1 µM (inconclusive). The IC50 in [6] was > 80 µM (inactive); in [7] it was > 50 µM (not active).
For the compound `O=C(O)C1Nc2ccc(OC(F)(F)F)cc2C2C=CCC12` (stereo unspecified), the IC50 at Large T antigen is 12.7 µM (active); in [10], 8.63 µM (active); on Bcl-2-like protein 1 it was 60.6 µM (not active).
By AC50 is commonly meant the concentration giving half of the maximal activity seen. `COc1ccc(C(CCNCc2ccc(OC(C)C)cc2)c2ccccc2OC)cc1` (stereo unspecified): the IC50 in assay [11] was > 96.6 µM (inactive). Moreover, the AC50 in assay [12] is 4.38 µM (active); in the assay on INS1, 7.21 µM (active); in [13], 15.3 µM (active); in assay [14], 6.44 µM (active); in [15] it was 5.99 µM (active).
Turning to `Cc1cc(NC(=O)CSc2nc(C(C)C)nc3c2c(=O)n(C)c(=O)n3C)no1`, the EC50 in [16] is 12.3 µM (not active).
Turning to `CN(C1CCCCC1)S(=O)(=O)c1ccc(S(=O)(=O)N2CCN(CCC#N)CC2)cc1`, the IC50 against Estrogen receptor beta is > 50 µM (not active).
Regarding `Cc1cc(/C=C2\SC(=S)NC2=O)c(C)n1-c1ccccc1`, the EC50 in “cells” was > 67.6 µM (inactive).
For `O=C(NC1=NCCS1)c1ccc(Cl)cc1`, the EC50 was 101 µM (active) in the assay on H4; 0.744 µM (active) in [17]; 0.24 µM (active) in [18]; < 0.1 µM (inconclusive) in assay [19]; 0.401 µM (active) in [20].
Regarding `O=C(Nc1ncc2c(n1)-c1ccccc1OC2)c1ccc(F)cc1`, the EC50 at Kallikrein-7 was > 69.5 µM (inactive).
`COc1cccc(C2=C(NC(=O)c3ccccc3)C(=O)c3ccccc3C2=O)c1`: the concentration at half-maximal activity (AC50) was 21 µM (active) in assay [21] and 10.5 µM (active) in assay [22].
Turning to `CCc1ccccc1NC(=O)CSc1nc2nnc(C)c-2c(N)n1-c1ccc(OC)cc1`, the EC50 at Kallikrein-7 was 4.1 µM (active).
As for `CC(=O)Nc1ccc(S(=O)(=O)N(C)CC(=O)OCC(=O)N2CCc3ccccc32)cc1`, in assay [16], the EC50 is 149 µM (not active).
Turning to `CC(C)(C)c1ccc(OCCn2ccccc2=O)cc1`, the EC50 in the assay on H4 was < 0.1 µM (active); in [17], 0.546 µM (active); in assay [18] it was 0.668 µM (active); in assay [20], 0.237 µM (active).
Turning to `O=C1C(NS(=O)(=O)c2ccc(Br)s2)=C(N2CCCCC2)C(=O)c2ccccc21`, the AC50 in assay [21] and in assay [22] was > 70 µM (inactive) in each case.
Regarding `Cc1cc(/C=C2\SC(=S)N=C2O)c(C)n1-c1ccccc1`, the EC50 in assay [23] is > 67.6 µM (inactive).
Take `COC(=O)C1=C(C)N(Cc2ccc(C(F)(F)F)cc2)C(NCc2cccc(C(F)(F)F)c2)=NC1c1ccccc1C(F)(F)F` (stereo unspecified): in assay [11], the IC50 was > 96.6 µM (inactive).
Consider `CC(=O)Nc1ccc(NC(=O)CSCc2cnn(-c3ccccc3)c2-n2cccc2)cc1`, for which the half-maximal inhibitory concentration (IC50) at Protein Tat is > 100 µM (active).
`COc1ccccc1Cn1c(=O)c2ccccc2n2c(SCC(=O)N3CCCCC3)nnc12`: the IC50 in assay [1] was > 100 µM (inactive); in assay [2], > 100 µM (not active).
